This passage reports RP-LC retention time results from the METLIN SMRT retention time set (Domingo-Almenara et al. 2019).

This data set can be described thus: gradient 5% acetonitrile 3 min, to 50% in 2 min, to 85% in 15 min, held 3 min, 100 µL/min. As to conditions: column: Zorbax Extend-C18 2.1 x 50 mm; eluents: water / acetonitrile, 0.1% formic acid. Summed up: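 Retention times come from adduct peaks that were picked computationally and then checked by hand. The standards, pure and pooled in mixtures of ~100 molecules, were run on a Zorbax Extend-C18 column (2.1 × 50 mm, 1.8 μm) at 100 μL/min with water and acetonitrile, each with 0.1% formic acid. Detection was by quadrupole time-of-flight mass spectrometry in positive and negative ionization mode, with a dead volume of 40 μL and a dwell volume of 900 μL.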
In the case of `CSCc1nnc(NC(=O)c2ccc(S(=O)(=O)N3CC(C)OC(C)C3)cc2)o1` (centres undefined), the RP-LC retention time is 704 s. Take `O=C(Nc1ccc(F)c(Cl)c1)C1CCN(C(=O)NCc2cccs2)CC1`: the RP-LC retention time is 764 s.

In turn, `Cc1ccc(-c2noc(Cc3nnc(-c4cccc(C)c4)o3)n2)cc1` showed an RP-LC retention time of 1130 s.

The compound `COc1ccc(OC)c(NC(=O)N2CCC(n3cnc4cccnc43)CC2)c1` gave an RP-LC retention time of 649 s. With `Cc1cc(N2CCN(C(=O)Nc3ccc(F)c(Cl)c3)CC2)nc(N2CCOCC2)n1`, the RP-LC retention time was determined as 665 s. To `Cc1ccc(NC(=O)N2CCC(n3cnnc3C3CC3)C2)c(Cl)c1` (centres undefined) belongs 663 s; to `COc1cccc(-c2cc(=O)n3c4ccccc4n(CC(=O)Nc4ccc5c(c4)OCO5)c3n2)c1`, 924 s; to `CCc1ccc(N2C=C(C(=O)N3CCOCC3)S(=O)(=O)c3ccc(F)cc32)cc1`, 873 s. In the case of `Cc1ccc(N(C)C(=O)CN2C(=O)CCCc3cc(S(=O)(=O)N4CCCCC4)ccc32)cc1`, the RP-LC retention time is 976 s. Under `Cc1ccc(C(=O)N2CCN(c3ccccn3)CC2)cc1NC(=O)C1=CSCCO1` stands 604 s; under `CC(C)CC1c2nccn2CCCN1C(=O)c1cc(C2CC2)[nH]n1` (centres undefined), 614 s. Under `CC(C)c1nncn1C1CCN(S(=O)(=O)c2ccc(C(F)(F)F)cc2)CC1` stands 791 s; under `COc1cc(CNC(=O)CCC(=O)N2CC3CCCN3c3ccccc32)cc(OC)c1OC` (centres undefined), 818 s; under `CC(C)c1ccc(N2C=C(C#N)S(=O)(=O)c3ccccc32)cc1`, 1040 s. In turn, `Cc1nc(C2CN(S(=O)(=O)c3cccc(C(F)(F)F)c3)CC23CCOCC3)no1` (centres undefined) showed an RP-LC retention time of 856 s. As to `Fc1ccccc1CN1CCc2nc(N3CCN(c4ccccc4F)CC3)ncc2C1`, the RP-LC retention time came to 771 s. In turn, `Cn1cc(C(=O)NCc2cccc(C(F)(F)F)c2)c2cccnc21` gave an RP-LC retention time of 818 s. To `CCCn1c(C2CCN(C(=O)c3sccc3C)C2)nc2cccnc21` (centres undefined) belongs 716 s. To `COc1cc(-c2ccnc3nc(CCc4ccccc4)nn23)cc(OC)c1OC` belongs 856 s; to `CCN(Cc1ccccc1)S(=O)(=O)c1c(C)c(-c2nnc(C3CCC3)o2)n(C)c1C`, 1130 s; to `CC(C)c1csc(-c2csc(S(=O)(=O)NCc3ccc4c(c3)OCO4)c2)n1`, 1050 s. To `Cc1ccc(S(=O)(=O)N2CCC(CN3CCCCCC3)CC2)cc1Cl` belongs 721 s; to `O=C(Cc1ccc(Cl)cc1)Nc1cnc(-c2ccccc2)nc1`, 1000 s; to `CCc1ccc(-c2cn3cc(C(=O)N4CCCN(C)CC4)ccc3n2)cc1`, 570 s. `CN1C(=O)CCc2cc(NC(=O)c3ccnn3C)ccc21` showed an RP-LC retention time of 645 s.

With `CCc1cc2nn(CC#N)c(=O)n2c(C(C)C)n1`, the RP-LC retention time is 871 s. For the compound `CCc1nc(-c2csc(S(=O)(=O)N3CCCC(C(=O)Nc4ccc(C#N)cc4)C3)c2)no1` (centres undefined), the RP-LC retention time came to 1020 s. `Cc1cc2c(c(C#N)c1C)NC=NC2C` (centres undefined) registered an RP-LC retention time of 641 s. Compound `CCCN1CCN(c2cc(C(=O)O)c3cc(NC(=O)c4ccc(F)cc4)ccc3n2)CC1` yielded an RP-LC retention time of 888 s.

The compound `O=C(CN1C(=O)CSc2ccc(C(=O)N3CCCCC3)cc21)NCCCN1CCCCC1` displayed an RP-LC retention time of 610 s. To `CCc1noc(NC(C)=O)c1-c1ccc(C)c(S(=O)(=O)NCc2ccccc2OC)c1` belongs 827 s. To `C=C(C)COc1ccc2c(C)c(CCC(=O)N3CCN(c4ccccn4)CC3)c(=O)oc2c1C` belongs 743 s; to `CC1CCN(CCNS(=O)(=O)c2ccccc2-c2nc(-c3ccccc3)no2)CC1`, 735 s; to `COc1ccc(N2CC(c3noc(-c4cc(Cl)ccc4F)n3)CC2=O)cc1` (centres undefined), 1050 s. Under `COc1ccc2c(C)c(C(=O)Nc3cc(C)ns3)oc2c1` stands 826 s.

In turn, `COc1ccc(C2CC(=O)c3c([nH]c(C(=O)OC4CCCCC4)c3C)C2)cc1OC` (centres undefined) returned an RP-LC retention time of 1070 s. Compound `Cc1cc(C(=O)Nc2ccccc2F)nc2cc(-c3cccs3)nn12` returned an RP-LC retention time of 1300 s.

For `CCOC(=O)C1=C(CN2CCC(N3CCCCC3)CC2)NC(=O)NC1c1ccc(OC(C)C)cc1` (centres undefined), the RP-LC retention time was found to be 605 s. To `CC(=O)Nc1cccc(NC(C)=O)n1` belongs 609 s; to `O=C(NCc1cnoc1-c1ccc(F)cc1)c1ccccc1F`, 866 s; to `Cc1ccc(N2CCN(C(=O)c3cn4c(n3)COCC4)CC2)cc1`, 651 s. Under `O=C(C1CCN(Cc2cc3ccccc3n2Cc2ccccc2)CC1)N1CCOCC1` stands 683 s; under `O=C(Nc1cnc(N2CCCC2)c(C(=O)O)c1)c1ccc(Cl)cc1`, 631 s; under `CCCNC(=O)C1CCCN(c2nc3ncn(CC(=O)Nc4cccc(Cl)c4)c(=O)c3s2)C1` (centres undefined), 731 s. In turn, `O=C(NCC1CC1)c1cn(-c2ccc(S(=O)(=O)N3CCCC3)cn2)cn1` had an RP-LC retention time of 762 s.

`CN(C)c1cccc(C(=O)N2CCc3nc[nH]c3C2)c1` registered an RP-LC retention time of 578 s. Take `CN(C)c1nn(CC(=O)Nc2ccc(F)c(Cl)c2)c(=O)c2ccccc12`: the RP-LC retention time came to 928 s. To `CC(C)NC(=O)C1CN(S(=O)(=O)c2ccccc2)c2cc(C(C)(C)C)ccc2O1` (centres undefined) belongs 780 s; to `Cc1cc(-c2nnc(-c3ccc(F)cc3)o2)c(C)n1CC(=O)N1CCCC1`, 808 s. `CCn1cc(CC(=O)NCc2cccc(OC)c2)c2cccnc21` gave an RP-LC retention time of 695 s.

In turn, `Cn1cnc2c(NCc3ccccc3)nc(NCCO)nc21` displayed an RP-LC retention time of 657 s. Regarding `Cc1ccccc1CNC(=O)C1CCN(S(=O)(=O)c2cc(C(=O)N(C)C)cs2)CC1`, the RP-LC retention time stood at 762 s. Under `Cc1oc(-c2cccc(Cl)c2)nc1COc1cc(C)c2c(C)nn(C)c2n1` stands 1340 s; under `Cc1ccc(CNC(=O)C2CCN(c3cnn(C)c(=O)c3)C2)o1` (centres undefined), 641 s. Turning to `CCc1cc(=O)n(CC(=O)Nc2cccc(C(C)=O)c2)c(N2CCOCC2)n1`, the RP-LC retention time was determined as 677 s. To `COc1ccc(OC)c(S(=O)(=O)Cc2nc(-c3ccccc3C)no2)c1` belongs 990 s.

For `C=CCN1C(=O)COc2ccc(-c3nc(NC(=O)C(C)(C)C)sc3C)cc21`, the RP-LC retention time came out at 1010 s. To `COc1cccc(CNC(=O)C2(C)CCCN(C(=O)Nc3cc(C)ccc3C)C2)c1` (centres undefined) belongs 939 s; to `CCOC(=O)c1c(C)[nH]c(C(=O)N2CCC(CC(=O)N3CCN(c4ccccn4)CC3)CC2)c1C`, 619 s. To `CCN(CC)C(=O)c1ccc(-c2nc3cc(NS(=O)(=O)c4ccccc4)ccc3n2C)cc1` belongs 671 s; to `Cc1ccc2c(=O)c3c([nH]c2c1C)CCN(CC(=O)Nc1cc(F)cc(F)c1)C3`, 638 s; to `CC(=O)N1CCc2c([nH]c3ccccc23)C12C(=O)Nc1ccccc12` (centres undefined), 721 s.

`COc1ccc(-n2c(=O)n(C)c(=O)c3cc(C(=O)Nc4ccccc4C(N)=O)cnc32)cc1` displayed an RP-LC retention time of 787 s. In turn, `CCc1cnn2c(NCc3ccc[n+]([O-])c3)cc(N3CCCC[C@H]3CCO)nc12` came in with an RP-LC retention time of 637 s. In turn, `COc1ccc(OC)c(S(=O)(=O)N2CCCC(C(=O)NC(C)(C)C)C2)c1` (centres undefined) came in with an RP-LC retention time of 768 s.

`Cc1cc(C(=O)Nc2ccccc2Cl)nc2cc(-c3ccco3)nn12` registered an RP-LC retention time of 1280 s. `COc1nc2ccccc2nc1N1CCCC(C(=O)NC2CCCCCC2)C1` (centres undefined) had an RP-LC retention time of 1090 s. On to `COc1cc(C2CC(=O)c3cnc(N4CCN(C)CC4)nc3C2)cc(OC)c1OC` (centres undefined), for which the RP-LC retention time came out at 628 s. `CCCS(=O)(=O)c1nc2ccc(NS(=O)(=O)c3ccc4c(c3)CCCC4)cc2s1` came in with an RP-LC retention time of 1060 s. Under `Cc1cc(NC(=O)CSc2nnc(C(C)C)c3cnn(-c4ccc(C)c(C)c4)c23)no1` stands 845 s; under `Cc1ccccc1NC(=O)N1CCC(n2cnc3c(Cl)cccc3c2=O)CC1`, 791 s; under `COc1ccc(-c2nnc(COc3cccc(NC(=O)C4CCCC4)c3)o2)cc1`, 959 s. To `COc1ccc(C2CC(=O)N(CC(=O)N3CCOCC3)c3ccccc3S2)cc1OC` (centres undefined) belongs 736 s; to `CCn1cnc(S(=O)(=O)N2CCC(C(=O)NCc3ccc(Br)cc3)CC2)c1`, 747 s; to `CCn1c(=O)n(CC)c2cc(N3CCCC3)c(NC(=O)NCc3cccc(OC)c3)cc21`, 646 s. For the compound `Cc1ccc2c(C(=O)O)cc(NC(=O)C3CCC3)cc2n1`, the RP-LC retention time was determined as 574 s. Under `C[C@]12CC[C@H](O)CC1=CC[C@@H]1[C@@H]2CC[C@]2(C)c3[nH]ncc3C[C@@H]12` stands 796 s; under `Cc1nc(-c2cc(S(=O)(=O)Nc3ccc(F)cc3Cl)c(C)s2)cs1`, 1050 s. To `Cc1nnc(SCCC(=O)Nc2ccc(F)cc2)s1` belongs 692 s.
